Assay results as given in patent publication US20040127403A1, “Methods for treating and preventing Gram-positive bacteremias” (priority 2002, published 2004).

System: E. faecium A6345 Line-R
Assay: MIC, NCCLS broth microdilution
Type: cell-based
Protocol: The efficacy of ramoplanin was tested against recently isolated VRE that are resistant to linezolid and quinupristin/dalfopristin. The culture media containing ramoplanin was supplemented with 0.02% bovine serum albumin (BSA) to prevent ramoplanin binding to the plastic. MIC values were determined in both cation-adjusted Mueller-Hinton broth (CAMHB) and trypticase soy broth (TSB) by the National Committee for Clinical Laboratory Standards (NCCLS) broth microdilution method. Macromolecular biosynthesis experiments were done by following the incorporation of carbon-14-labeled N-acetylglucosamine, acetic acid, amino acids, uridine, and thymidine into peptidoglycan, fatty acid, protein, RNA and DNA, respectively.

[1] = E. faecium A6345 Line-R. as printed, second row of Table 3
[2] = E. faecium A6345 Line-R., first row of Table 3

Row | Compound | reference MIC for strains used for killing curve [1] [µg/mL] | reference MIC for strains used for killing curve [2] [µg/mL]
1 | O=C(N[C@H](CO)[C@H](O)c1ccc([N+](=O)[O-])cc1)C(Cl)Cl [Chloramphenicol] | 16 | 16
2 | CO[C@H]1/C=C/O[C@@]2(C)Oc3c(C)c(O)c4c(O)c(c(/C=N/N5CCN(C)CC5)c(O)c4c3C2=O)NC(=O)/C(C)=C\C=C\[C@H](C)[C@H](O)[C@@H](C)[C@@H](O)[C@@H](C)[C@H](OC(C)=O)[C@@H]1C [Rifampin] | 0.03 | 16
